Reference: ChEMBL document CHEMBL1201862, “PubChem BioAssay data set” (2004)
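Dose response: 5 concentrations. Exposure: 48 h. Format: 96-well plates. Endpoint: linear interpolation; highest concentration if not reached. GI50: concentration for 50% inhibition of growth.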 Calls of active or inactive are those of the source. No stated cut-off is given here; in the data, active = GI50 up to about 1.1 µM and inactive = higher.

Tests used:
Assay in all cases: NCI tumour cell line growth inhibition, 48 h
[1] = test system: DMS-114
[2] = test system: EKVX
[3] = test system: OVCAR-5
[4] = test system: M14
[5] = test system: UACC-257
[6] = test system: Malme-3M
[7] = test system: SR
[8] = test system: A498
[9] = test system: SK-OV-3
[10] = test system: HOP-62
[11] = test system: CCRF-CEM
[12] = test system: NCI-H23
[13] = test system: SK-MEL-2
[14] = test system: IGROV-1
[15] = test system: SN12C
[16] = test system: HCT-15
[17] = test system: TK-10
[18] = test system: 786-0
[19] = test system: SF-268
[20] = test system: HCT-116
[21] = test system: OVCAR-3
[22] = test system: HCC 2998
[23] = test system: SW-620
[24] = test system: SF-539
[25] = test system: NCI-H460
[26] = test system: LOX IMVI
[27] = test system: M19-MEL
[28] = test system: UACC-62
[29] = test system: MOLT-4
[30] = test system: DLD-1
[31] = test system: A549
[32] = test system: XF498
[33] = test system: HOP-18
[34] = test system: SK-MEL-28
[35] = test system: U-251
[36] = test system: ACHN
[37] = test system: KM12
[38] = test system: UO-31
[39] = test system: OVCAR-4
[40] = test system: RPMI-8226
[41] = test system: LXFL 529
[42] = test system: RXF 393
[43] = test system: SNB-78
[44] = test system: KM-20L2
[45] = test system: NCI-H522
[46] = test system: HT-29
[47] = test system: K562
[48] = test system: SNB-19
[49] = test system: HL-60
[50] = test system: NCI-H226
[51] = test system: OVCAR-8
[52] = test system: DMS-273
[53] = test system: PC-3
[54] = test system: MDA-MB-435
[55] = test system: SF-295
[56] = test system: COLO 205
[57] = test system: BT-549
[58] = test system: T47D
[59] = test system: SK-MEL-5
[60] = test system: MDA-MB-231
[61] = test system: SNB-75
[62] = test system: MCF7
[63] = test system: DU-145
[64] = test system: MDA-N
[65] = test system: Hs-578T
[66] = test system: NCI/ADR-RES

For `S=C(Nc1ccccc1)N1N=C2c3ccccc3CC[C@H]2[C@@H]1c1ccccc1`, the GI50 [1] was 2.29 µM (inactive), the GI50 [2] was > 100 µM (inactive) and the GI50 [3] was > 100 µM (inactive). For the same compound, the GI50 [4] was 4.89 µM (inactive), the GI50 [5] was 3.58 µM (inactive) and the GI50 [6] was > 100 µM (inactive). For the same compound, the GI50 [7] was 0.248 µM (active), the GI50 [8] was 11.7 µM (inactive) and the GI50 [9] was 2.22 µM (inactive). The GI50 [10] was 4.22 µM (inactive), the GI50 [11] was 2.91 µM (inactive) and the GI50 [12] was 5.27 µM (inactive). The GI50 [13] was 2.35 µM (inactive), the GI50 [14] was 4.54 µM (inactive) and the GI50 [15] was 37.2 µM (inactive). For the same compound, the GI50 [16] was 2.02 µM, the GI50 [17] was > 100 µM (inactive) and the GI50 [18] was 4.31 µM (inactive). The GI50 [19] was 12.9 µM (inactive), the GI50 [20] was > 100 µM (inactive) and the GI50 [21] was 1.88 µM (inactive). The GI50 [22] was > 100 µM (inactive), the GI50 [23] was 2.4 µM (inactive) and the GI50 [24] was 5.87 µM (inactive). For the same compound, the GI50 [25] was 3.64 µM (inactive), the GI50 [26] was 7.35 µM (inactive) and the GI50 [27] was 1.83 µM (inactive). The GI50 [28] was 2.75 µM (inactive), the GI50 [29] was 4 µM (inactive) and the GI50 [30] was 9.42 µM (inactive). The GI50 [31] was 4.66 µM (inactive), the GI50 [32] was > 100 µM (inactive) and the GI50 [33] was 6.21 µM (inactive). The GI50 [34] was 8.09 µM (inactive), the GI50 [35] was 7.59 µM (inactive) and the GI50 [36] was 6.78 µM (inactive). The GI50 [37] was 2.79 µM (inactive), the GI50 [38] was 13.2 µM (inactive) and the GI50 [39] was 47.1 µM (inactive). For the same compound, the GI50 [40] was 4.34 µM (inactive), the GI50 [41] was 5.52 µM (inactive) and the GI50 [42] was 2.12 µM (inactive). For the same compound, the GI50 [43] was 0.708 µM (active), the GI50 [44] was 3.21 µM (inactive) and the GI50 [45] was 0.581 µM (active). The GI50 [46] was 2.81 µM (inactive), the GI50 [47] was 0.607 µM (active) and the GI50 [48] was 9.18 µM (inactive). The GI50 [49] was 0.855 µM (active), the GI50 [50] was 4.23 µM (inactive) and the GI50 [51] was 10.3 µM (inactive).

`Oc1cccc(-c2cc(O)c3cc4c(cc3n2)OCO4)c1` was tested, and the GI50 [1] was 0.721 µM (active), the GI50 [3] was > 100 µM (inactive) and the GI50 [4] was 3.58 µM (inactive). For the same compound, the GI50 [52] was 1.09 µM (active), the GI50 [5] was > 26.1 µM (inactive) and the GI50 [6] was 0.352 µM (active). For the same compound, the GI50 [7] was 0.283 µM (active), the GI50 [53] was 1.55 µM (inactive) and the GI50 [8] was 41.8 µM (inactive). For the same compound, the GI50 [9] was 1.41 µM (inactive), the GI50 [10] was 1.6 µM (inactive) and the GI50 [54] was 0.277 µM (active). For the same compound, the GI50 [11] was 0.54 µM (active), the GI50 [12] was 4.3 µM (inactive) and the GI50 [13] was 0.851 µM (active). The GI50 [55] was 5.74 µM (inactive), the GI50 [56] was 2.68 µM (inactive) and the GI50 [14] was 4.98 µM (inactive). For the same compound, the GI50 [15] was 3.03 µM (inactive), the GI50 [16] was 2.74 µM and the GI50 [17] was 13.2 µM (inactive). For the same compound, the GI50 [18] was 5.52 µM (inactive), the GI50 [57] was 0.867 µM (active) and the GI50 [19] was 1.71 µM (inactive). For the same compound, the GI50 [20] was 1.43 µM (inactive), the GI50 [21] was 0.193 µM (active) and the GI50 [58] was 23.7 µM (inactive). For the same compound, the GI50 [22] was 4.28 µM (inactive), the GI50 [23] was 3.21 µM (inactive) and the GI50 [24] was 1.7 µM (inactive). The GI50 [59] was 1.46 µM (inactive), the GI50 [25] was 17.8 µM (inactive) and the GI50 [26] was 4.98 µM (inactive). For the same compound, the GI50 [27] was 1.49 µM (inactive), the GI50 [28] was 2.42 µM (inactive) and the GI50 [29] was 3.77 µM (inactive). For the same compound, the GI50 [60] was 1.92 µM (inactive), the GI50 [30] was 3.43 µM (inactive) and the GI50 [31] was 5.27 µM (inactive). The GI50 [32] was 7.26 µM (inactive), the GI50 [33] was > 100 µM (inactive) and the GI50 [61] was 0.379 µM (active). The GI50 [34] was 2.81 µM (inactive), the GI50 [35] was 1.43 µM (inactive) and the GI50 [36] was 5.85 µM (inactive). The GI50 [37] was 0.561 µM (active), the GI50 [38] was 4.23 µM (inactive) and the GI50 [39] was > 100 µM (inactive). The GI50 [40] was 4.03 µM (inactive), the GI50 [62] was 3.1 µM (inactive) and the GI50 [41] was 1.87 µM (inactive). For the same compound, the GI50 [42] was 1.67 µM (inactive), the GI50 [43] was 1.03 µM (active) and the GI50 [45] was 0.284 µM (active). The GI50 [63] was 0.302 µM (active), the GI50 [46] was 3.37 µM (inactive) and the GI50 [64] was 0.231 µM (active). For the same compound, the GI50 [47] was 0.505 µM (active), the GI50 [48] was 3.84 µM (inactive) and the GI50 [49] was 1.26 µM (inactive). The GI50 [50] was 2.9 µM (inactive), the GI50 [51] was 2.85 µM (inactive) and the GI50 [65] was 0.457 µM (active). The GI50 [66] was 1.31 µM (inactive).
